Laboratory results as given in publication PMC12738788, “Structural snapshots of Pseudomonas aeruginosa LptB2FG and LptB2FGC reveal insights into lipopolysaccharide recognition and transport” (Nature Communications, 2025).
Values joined by “and” are separate entries in the source; they are usually repeats but may differ in a detail not shown here. Equal entries are not always repeated.

Legend:
P. aeruginosa LptB2FG = assay: Native MS lipid binding to LptB2FG; set-up: species or system Pseudomonas aeruginosa; settings: for 1x lipid_Ratio / 2x lipid_Ratio / 3x lipid_Ratio / 4x lipid_Ratio / Apo_Ratio: 3 μM protein
Experimental: (§1) Purified LptB2FG(C) was buffer exchanged into MS Buffer (200 mM ammonium acetate + 0.04% (w/v) [G1]-OGD) using a centrifugal buffer exchange device (Micro Bio-Spin 6, Bio-Rad) as previously described. The freshly buffer-exchanged protein was kept on ice, with protein concentration measured as before. The protein samples were diluted as desired in 200 mM ammonium acetate buffer with detergent as necessary and loaded into a gold-coated capillary Clark borosilicate capillary (Harvard Apparatus) prepared in the laboratory. The experiments were performed using a Q Exactive UHMR Hybrid Quadrupole-Orbitrap mass spectrometer (Thermo Fisher Scientific). Typically, 2 μl of buffer-exchanged protein solution was electrosprayed in negative polarity from in-house prepared gold-coated borosilicate capillaries. The instrument parameters used for data collection were: capillary voltage 1.1 kV, S-lens RF 100%, quadrupole selection from 1000 to 20,000 m/z range, HCD collision energy 200–300 V, source fragmentation 0 V, in-source trapping 200–300 V in negative mode. The ion transfer optics was set as follows: injection flatapole − 5 V, inter-flatapole lens − 4 V, bent flatapole − 2 V, transfer multipole 0 V. The resolution of the instrument was 8750 at m/z = 200 (transient time of 64 ms), argon pressure in the HCD cell was maintained at approximately at 8 × 10^–10 mbar and source temperature was kept at 200 °C. The noise level was set at 3 rather than the default value of 4.64. Calibration of the instruments was performed using 10 mg/ml solution of caesium iodide in water. Where required, baseline subtraction was performed to achieve a better-quality mass spectrum. Data were analysed using the Xcalibur 3.0 (Thermo Scientific), NaViA[64], and UniDec (www.unidec.chem.ox.ac.uk)[65] software packages.
(§2) Lipid and nucleotide binding experiments were performed by diluting them in 200 mM ammonium acetate supplemented with 0.04% [G1]-OGD. Native MS experiments were performed at a total LptB2FG(C) protein concentration of 3 μM.
(§3) Peak intensities were extracted using UniDec, and the ratios of the intensity of the ligand bound peak versus the total intensity of all observed species were calculated. The apparent dissociation constant (KD) values for individual lipid-binding events to LptB2FG and LptB2FGC were calculated through a sequential lipid-binding model using a previously described Python script. When necessary, a Welch’s T-test was used to evaluate statistically significant differences and data were plotted using GraphPad Prism 8.0. Error bars in the plots indicate standard deviation, and all experiments were performed in triplicate (n = 3).

P. aeruginosa LptB2FGC [1] = assay: Native MS lipid binding to LptB2FGC; set-up: species or system Pseudomonas aeruginosa; settings: for 1x lipid_Ratio / 2x lipid_Ratio / 3x lipid_Ratio / 4x lipid_Ratio / Apo_Ratio: 3 μM protein
Experimental: as §1, §2, §3

P. aeruginosa LptB2FGC [2] = assay: Native MS: CDL added to LptB2FG(C):Re-LPS complex (competition); format: binding, Pseudomonas aeruginosa; settings: Re-LPS 1 uM + CDL 2.5 uM
Experimental: In particular, we chose 14:0 CDL to be consistent with the 14 carbon lipid tails of Re-LPS, and incubated this with the LptB2FG/LptB2FGC complex, we could observe ~ 50% of LptB2FGC bound to CDL at 2.5 μM concentration (Fig. 5b). Apparent KD calculation indicated a similar trend when comparing LptB2FG and LptB2FGC interaction with CDL to that of LPS (Supplementary Fig. S18). […] We set out to test whether CDL influences LPS binding to LptB2FGC. To this end, we added increasing concentrations of CDL (1.0 to 5 μM) to a solution containing LptB2FG(C):Re-LPS complex (Supplementary Fig. S19).
Purified LptB2FG(C) was buffer exchanged into MS Buffer (200 mM ammonium acetate + 0.04% (w/v) [G1]-OGD) using a centrifugal buffer exchange device (Micro Bio-Spin 6, Bio-Rad) as previously described. The freshly buffer-exchanged protein was kept on ice, with protein concentration measured as before. […] Data were analysed using the Xcalibur 3.0 (Thermo Scientific), NaViA[64], and UniDec (www.unidec.chem.ox.ac.uk)[65] software packages. […]
Peak intensities were extracted using UniDec, and the ratios of the intensity of the ligand bound peak versus the total intensity of all observed species were calculated. The apparent dissociation constant (KD) values for individual lipid-binding events to LptB2FG and LptB2FGC were calculated through a sequential lipid-binding model using a previously described Python script. […]

[3] = biological target: P. aeruginosa LptB with a C-terminal 6 x His-tag (P. aeruginosa); assay: non-reducing SDS-PAGE; SDS-PAGE gel of the purified complex, run under non-reducing conditions
[4] = biological target: P. aeruginosa LptB with a C-terminal 6 x His-tag (P. aeruginosa); assay: native MS; complex co-expressed and purified by the His tag on LptB (IMAC, SEC), exchanged into 200 mM ammonium acetate + 0.04% (w/v) [G1]-OGD; negative polarity
[5] = biological target: P. aeruginosa LptB with a C-terminal 6 x His-tag (P. aeruginosa); assay: cryo-EM structure; LptB2FG/LptB2FGC co-expressed, co-purified and delipidated, reconstituted in MSP1D1 nanodiscs with E. coli total extract lipid; 20 mM Tris-HCl pH 7.5, 100 mM NaCl; substrate-free; three LptB2FG and two LptB2FGC conformations from one sample
[6] = first lipid-binding event, sequential lipid-binding model, native MS, read-out: apparent dissociation constant KD(1)

In the case of CCCCCCCCCCCCCC(=O)OC[C@H](COP(=O)(O)OCC(O)COP(=O)(O)OC[C@@H](COC(=O)CCCCCCCCCCCCC)OC(=O)CCCCCCCCCCCCC)OC(=O)CCCCCCCCCCCCC (stereo partly shown) [CDL, 1’,3’-bis[1,2-dimyristoyl-sn-glycero-3-phospho]-glycerol], the “1x lipid_Ratio” value (P. aeruginosa LptB2FG; 0.25 μM lipid) is reported as 0.1443 and 0.1705 and 0.1602, the “2x lipid_Ratio” value (P. aeruginosa LptB2FG; 0.25 μM lipid) is reported as 0 and the “3x lipid_Ratio” value (P. aeruginosa LptB2FG; 0.25 μM lipid) is reported as 0. The “4x lipid_Ratio” value (P. aeruginosa LptB2FG; 0.25 μM lipid) was 0, the Apo_Ratio (P. aeruginosa LptB2FG; 0.25 μM lipid) was 0.8557 and 0.8295 and 0.8398 and the “1x lipid_Ratio” value (P. aeruginosa LptB2FG; 0.5 μM lipid) was 0.199 and 0.1911 and 0.2318. For the same compound, the “2x lipid_Ratio” value (P. aeruginosa LptB2FG; 0.5 μM lipid) was 0, the “3x lipid_Ratio” value (P. aeruginosa LptB2FG; 0.5 μM lipid) was 0 and the “4x lipid_Ratio” value (P. aeruginosa LptB2FG; 0.5 μM lipid) was 0. The Apo_Ratio (P. aeruginosa LptB2FG; 0.5 μM lipid) was 0.801 and 0.8089 and 0.7682, the “1x lipid_Ratio” value (P. aeruginosa LptB2FG; 1 μM lipid) was 0.2261 and 0.2185 and 0.1754 and the “3x lipid_Ratio” value (P. aeruginosa LptB2FG; 1 μM lipid) was 0. For the same compound, the “4x lipid_Ratio” value (P. aeruginosa LptB2FG; 1 μM lipid) was 0, the Apo_Ratio (P. aeruginosa LptB2FG; 1 μM lipid) was 0.7468 and 0.7118 and 0.7769 and the “1x lipid_Ratio” value (P. aeruginosa LptB2FG; 1.25 μM lipid) was 0.2786 and 0.2616 and 0.2584. The “2x lipid_Ratio” value (P. aeruginosa LptB2FG; 1.25 μM lipid) was 0.04833 and 0.04258 and 0.08199, the “3x lipid_Ratio” value (P. aeruginosa LptB2FG; 1.25 μM lipid) was 0 and the “4x lipid_Ratio” value (P. aeruginosa LptB2FG; 1.25 μM lipid) was 0. The Apo_Ratio (P. aeruginosa LptB2FG; 1.25 μM lipid) was 0.6731 and 0.6958 and 0.6596, the “1x lipid_Ratio” value (P. aeruginosa LptB2FG; 2.5 μM lipid) was 0.3458 and 0.3529 and 0.3561 and the “2x lipid_Ratio” value (P. aeruginosa LptB2FG; 2.5 μM lipid) was 0.07878 and 0.07812 and 0.08017. For the same compound, the “3x lipid_Ratio” value (P. aeruginosa LptB2FG; 2.5 μM lipid) was 0, the “4x lipid_Ratio” value (P. aeruginosa LptB2FG; 2.5 μM lipid) was 0 and the Apo_Ratio (P. aeruginosa LptB2FG; 2.5 μM lipid) was 0.5754 and 0.569 and 0.5638. The “1x lipid_Ratio” value (P. aeruginosa LptB2FG; 5 μM lipid) was 0.4041 and 0.3985 and 0.4061, the “2x lipid_Ratio” value (P. aeruginosa LptB2FG; 5 μM lipid) was 0.2783 and 0.2976 and 0.263 and the “3x lipid_Ratio” value (P. aeruginosa LptB2FG; 5 μM lipid) was 0.07217 and 0.104 and 0.096. For the same compound, the “4x lipid_Ratio” value (P. aeruginosa LptB2FG; 5 μM lipid) was 0, the Apo_Ratio (P. aeruginosa LptB2FG; 5 μM lipid) was 0.2455 and 0.1999 and 0.2349 and the Kd (P. aeruginosa LptB2FG; [6]) was 4.8 ± 0.14 µM. For the same compound, the “1x lipid_Ratio” value (P. aeruginosa LptB2FGC [1]; 0.25 μM lipid) was 0.1955 and 0.2067 and 0.2427, the “2x lipid_Ratio” value (P. aeruginosa LptB2FGC [1]; 0.25 μM lipid) was 0 and the “3x lipid_Ratio” value (P. aeruginosa LptB2FGC [1]; 0.25 μM lipid) was 0. For the same compound, the “4x lipid_Ratio” value (P. aeruginosa LptB2FGC [1]; 0.25 μM lipid) was 0, the Apo_Ratio (P. aeruginosa LptB2FGC [1]; 0.25 μM lipid) was 0.8045 and 0.7933 and 0.7573 and the “1x lipid_Ratio” value (P. aeruginosa LptB2FGC [1]; 0.5 μM lipid) was 0.236 and 0.2635 and 0.2763. For the same compound, the “2x lipid_Ratio” value (P. aeruginosa LptB2FGC [1]; 0.5 μM lipid) was 0, the “3x lipid_Ratio” value (P. aeruginosa LptB2FGC [1]; 0.5 μM lipid) was 0 and the “4x lipid_Ratio” value (P. aeruginosa LptB2FGC [1]; 0.5 μM lipid) was 0. For the same compound, the Apo_Ratio (P. aeruginosa LptB2FGC [1]; 0.5 μM lipid) was 0.764 and 0.7365 and 0.7237, the “1x lipid_Ratio” value (P. aeruginosa LptB2FGC [1]; 1 μM lipid) was 0.2764 and 0.2872 and 0.3074 and the “2x lipid_Ratio” value (P. aeruginosa LptB2FGC [1]; 1 μM lipid) was 0.0846 and 0.07455 and 0.1186. The “3x lipid_Ratio” value (P. aeruginosa LptB2FGC [1]; 1 μM lipid) was 0, the “4x lipid_Ratio” value (P. aeruginosa LptB2FGC [1]; 1 μM lipid) was 0 and the Apo_Ratio (P. aeruginosa LptB2FGC [1]; 1 μM lipid) was 0.639 and 0.6382 and 0.574. For the same compound, the “1x lipid_Ratio” value (P. aeruginosa LptB2FGC [1]; 1.25 μM lipid) was 0.3498 and 0.3261 and 0.3766, the “3x lipid_Ratio” value (P. aeruginosa LptB2FGC [1]; 1.25 μM lipid) was 0 and the “4x lipid_Ratio” value (P. aeruginosa LptB2FGC [1]; 1.25 μM lipid) was 0. The Apo_Ratio (P. aeruginosa LptB2FGC [1]; 1.25 μM lipid) was 0.545 and 0.5422 and 0.5586, the “1x lipid_Ratio” value (P. aeruginosa LptB2FGC [1]; 2.5 μM lipid) was 0.3774 and 0.3613 and 0.3792 and the “2x lipid_Ratio” value (P. aeruginosa LptB2FGC [1]; 2.5 μM lipid) was 0.1928 and 0.1837 and 0.1898. For the same compound, the “3x lipid_Ratio” value (P. aeruginosa LptB2FGC [1]; 2.5 μM lipid) was 0.07276 and 0.06329 and 0.08767, the “4x lipid_Ratio” value (P. aeruginosa LptB2FGC [1]; 2.5 μM lipid) was 0 and the Apo_Ratio (P. aeruginosa LptB2FGC [1]; 2.5 μM lipid) was 0.3571 and 0.3916 and 0.3434. The “1x lipid_Ratio” value (P. aeruginosa LptB2FGC [1]; 5 μM lipid) was 0.2708 and 0.2286 and 0.261, the “2x lipid_Ratio” value (P. aeruginosa LptB2FGC [1]; 5 μM lipid) was 0.3089 and 0.3049 and 0.3123 and the “3x lipid_Ratio” value (P. aeruginosa LptB2FGC [1]; 5 μM lipid) was 0.1993 and 0.2344 and 0.2124. For the same compound, the “4x lipid_Ratio” value (P. aeruginosa LptB2FGC [1]; 5 μM lipid) was 0.08447 and 0.1259 and 0.09283, the Apo_Ratio (P. aeruginosa LptB2FGC [1]; 5 μM lipid) was 0.1365 and 0.1062 and 0.1214 and the Kd (P. aeruginosa LptB2FGC [1]; [6]) was 3.07 ± 0.09 µM. For the same compound, the “1x CDL” value (P. aeruginosa LptB2FGC [2]) was 0.1327 and 0.2003 and 0.1609 and the “2x CDL” value (P. aeruginosa LptB2FGC [2]) was 0.

For CCCCCCCCCCC[C@@H](O)CC(=O)N[C@H]1[C@H](OC[C@H]2O[C@H](OP(=O)(O)O)[C@H](NC(=O)C[C@H](O)CCCCCCCCCCC)[C@@H](OC(=O)C[C@H](O)CCCCCCCCCCC)[C@@H]2O)O[C@H](CO)[C@@H](OP(=O)(O)O)[C@@H]1OC(=O)C[C@H](O)CCCCCCCCCCC [lipid IVA], the “apo fraction of LptB2FG” value (P. aeruginosa LptB2FG; pre-delipidation, ClearColi-expressed complex, lipid IVA sole LPS-related species) was ~ 60% and the “lipid IVA occupancy of LptB2FGC” value (P. aeruginosa LptB2FGC [1]; pre-delipidation, ClearColi-expressed complex, with 2× adducts) was ~ 80%.

“P. aeruginosa LptB with a C-terminal 6 x His-tag (natural protein)” gave a stoichiometry N [3] of 2, a stoichiometry N [4] of 2 and a stoichiometry N [5] of 2.
